These results are taken from PubChem BioAssay AID1259427 (Fisher Drug Discovery Resource Center, 2018).

The structures appear in SMILES notation. Active and inactive are the calls of the source.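 The calls were made as follows: active = EC50 at or below a set limit, with no effect in the paired counter-screen assay; inactive = the rest.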

In this assay the target is Aedes aegypti neuropeptide Y-like receptor 7 (NPYLR7). Briefly: NPYLR7 activation potency in cells – cell-based, Aedes aegypti, hit validation, mosquito biting behavior, confirmation (AID 1259427).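 Also: potency of agonists that activate the receptor and raise the calcium signal.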 The note with it: HEK293T NPYLR7/Galpha15/GCaMP6s, calcium fluorescence.
Broadly, the EC50 is the concentration giving half of the maximal effect. On to `O=c1oc2cc(O)ccc2cc1-c1nc2ccccc2s1`, for which the EC50 entry was “inactive”.
With `COc1ccc(CCN2COc3ccc4c(c3C2)O/C(=C\c2cccnc2)C4=O)cc1`, the EC50 is > 20 µM (inactive).
Then `C(=Cc1ccccc1)C=NNc1ncnc2ccccc12`, with > 20 µM (inactive); and `CCn1c(=O)c2c(nc(/C=C/c3ccc(OC)c(OC)c3)n2C)n(CC)c1=O`, with > 20 µM (inactive).
Then `CCOc1cccc(C=C2Oc3cc(O)ccc3C2=O)c1OC`, with > 20 µM (inactive); and `O=C(c1nccc2ccccc12)N1CCN(CC2CCCC2)CC1`, with > 20 µM (inactive); and `CC(C)NCC(O)c1ccc(O)c(O)c1` (centres undefined), with > 20 µM (inactive).
With `CC(C)Nc1ccc(NS(=O)(=O)NCc2ccccc2)cn1`, the EC50 was > 20 µM (inactive).
The same measure for `CC1CN(c2ccc(/C=C(\C#N)c3nc4ccccc4[nH]3)o2)CC(C)O1` (centres undefined): > 20 µM (inactive); for `CCC(C)n1cc(/C=C2/C(=O)NC(=O)N(c3ccc4c(c3)OCO4)C2=O)c2ccccc21` (centres undefined): > 20 µM (inactive); for `O=C(CC(c1cccc([N+](=O)[O-])c1)c1c[nH]c2ccccc12)NC1CC1` (centres undefined): > 20 µM (inactive).
As for `N#Cc1cccc(C(=O)N2CCN(C(c3ccccc3)c3ccc(Br)cc3)CC2)c1` (centres undefined), the EC50 was > 20 µM (inactive).
The same measure for `O=C(COc1ccccc1)N1CCCC(CNS(=O)(=O)c2cccs2)C1` (centres undefined): 13.2 µM; for `CCOc1cc2c(cc1C=C(C#N)C#N)OC(C)C2` (centres undefined): > 20 µM (inactive); for `NC(=S)N/N=c1\oc2cc(O)ccc2cc1-c1nc2ccccc2[nH]1`: “inactive”.
On to `CCCCC(CC)CN=C(N)NC(N)=NCCCCCCN=C(N)NC(N)=NCC(CC)CCCC` (centres undefined), for which the half-maximal effective concentration (EC50) is 17.3 µM.
Then `CCCc1ccccc1N1C(=O)CSC1c1ccc(NC(=O)CCl)cc1` (centres undefined), with > 20 µM (inactive).
The same measure for `CCCS(=O)(=O)N1CCN=C1SCc1ccccc1C`: > 20 µM (inactive).
Consider `CCN(CC)c1ccc2cc(C(N)=O)/c(=N\NC(N)=S)oc2c1`, for which the EC50 was < 0.039 µM (inactive).
Then `CCOC=C(C#N)c1nc(C)cs1`, with “inactive”.
Then `Nc1c2c(nc3sc4c(c13)CCCC4)CCCCC2`, with > 20 µM (inactive); and `CNC(=O)c1cnc(/C=C/c2csc(-c3ccsc3)n2)[nH]c1=O`, with > 20 µM (inactive).
With `COc1ccc(-n2ccnc2-c2ccc(C#CC(C)(C)O)cc2)cn1`, the EC50 is > 20 µM (inactive).
Turning to `CCOC(=O)c1ccc(N=c2oc3cc(O)ccc3cc2-c2nc3ccccc3[nH]2)cc1`, the EC50 entry was “inactive”.
With `O=C(CNCc1ccccc1)N1CC(=O)N(c2cccc(Cl)c2)C1`, the EC50 is > 20 µM (inactive).
Then `O=C(O)CCN1C(=O)/C(=C/c2ccc(O)cc2)SC1=S`, with “inactive”.
Then `COc1cc(-c2nc3n(n2)C(c2ccc(O)cc2)C(C(N)=O)=C(C)N3)cc(OC)c1OC` (centres undefined), with > 20 µM (inactive); and `Cc1ccc(NC2C=CS(=O)(=O)C2)cc1C` (centres undefined), with > 20 µM (inactive); and `COc1ccccc1CCNC(=O)c1ccc(Cn2c(C)nc3ccccc32)o1`, with > 20 µM (inactive).
On to `CNCC(O)c1ccc(O)c(O)c1` (centres undefined), for which the EC50 entry was “inactive”.
Then `N#CC(C#N)=C1C=C2C=C(N3CCCCC3)CCC2CC1` (centres undefined), with < 0.039 µM (inactive); and `Cc1cc(C)c2cc3c(cc2n1)CCN3CC(O)CO` (centres undefined), with “inactive”.
For `NS(=O)(=O)c1ccc(NC(NC(=O)c2ccco2)C(=O)c2ccc(Cl)cc2)cc1` (centres undefined), the EC50 is > 20 µM (inactive).
For `N#C/C(=C\c1ccc(O)c(O)c1)C(=O)NCCCc1ccccc1`, the EC50 was 17.4 µM.
Take `Cn1c(C(C#N)=Cc2c(F)c(F)c(F)c(F)c2F)nc2ccccc21`: the EC50 is < 0.039 µM (inactive).
The same measure for `COc1ccc(NC[C@@H]2C=C(C)[C@H](Cc3nnc(C)o3)C[C@H]2C(C)C)cn1`: > 20 µM (inactive); for `CC[n+]1c(/C=C/C=C2/N(C)c3ccccc3C2(C)C)sc2ccccc21`: > 20 µM (inactive).
As to `CCOC(=O)c1ccccc1-c1c2ccc(=N)cc-2oc2cc(N)ccc12`, the EC50 was < 0.039 µM (inactive).
`O=C1NC(=NS(=O)(=O)c2ccccc2)SC1=Cc1cc([N+](=O)[O-])ccc1O`: the EC50 is > 20 µM (inactive).
Regarding `O=C1Nc2ccccc2C1C=NN1CCOCC1` (centres undefined), the EC50 is > 20 µM (inactive).
For the compound `N#Cc1c(N)nc2c(c1N)C(Sc1ccccc1)c1ccc(O)cc1O2` (centres undefined), the EC50 was < 0.039 µM (inactive).
Consider `O=C1C(=Cc2ccc(OC(F)F)cc2OC(F)F)Oc2cc(O)ccc21`, for which the EC50 was > 20 µM (inactive).
Take `O=C(O)CN1C(=O)/C(=C/c2cc(Br)c(O)c(Br)c2)SC1=S`: the EC50 result is “inactive”.
Then `CC(C)(C)c1cnc(CSc2cnc(NC(=O)C3CCNCC3)s2)o1`, with 14.9 µM; and `CCOC(=O)c1c(-c2ccccc2)csc1N=Cc1nc(-c2ccco2)oc1O`, with > 20 µM (inactive).
For the compound `N#Cc1cc2cc(Cl)cc(Cl)c2oc1=O`, the EC50 entry is “inactive”.
As for `CC1C(=O)c2cccc3c(=O)n(-c4ccccc4)c(O)c(c23)C1=O` (centres undefined), the EC50 is 5.77 µM.
Regarding `CCN=c1cc2oc3cc(NCC)c(C)cc3c(-c3ccccc3C(=O)OCC)c-2cc1C`, the EC50 entry is “inactive”.
Then `Cc1nc(=O)c(-c2ccccc2)c(C)n1-c1ccccc1O`, with > 20 µM (inactive); and `COc1cc(OC)cc(C(=O)N2CCN(C(C(=O)Nc3ccc(NC(C)=O)cc3)C3CCCC3)CC2)c1` (centres undefined), with > 20 µM (inactive); and `CCCc1[nH]n(-c2ccc(Cl)c(Cl)c2)c(=O)c1/C=C1\NC(=O)N(Cc2ccc(C)cc2)C1=O`, with > 20 µM (inactive).
For the compound `CCNC(=O)[C@H]1O[C@@H](n2cnc3c(N)ncnc32)C(O)[C@H]1O` (some centres undefined), the EC50 entry is “inactive”.
Regarding `O=C(O)CSc1ccc2c3c(cccc13)C(=O)c1ccccc1-2`, the EC50 result is “inactive”.
For `O=c1[nH]c(SCCO)nc2sc3c(c12)CCCC3`, the EC50 was > 20 µM (inactive).
The same measure for `C=CCNc1ccc2c3c(cccc13)C(=O)N(c1ccccc1)C2=O`: “inactive”.
Then `CCOC(=O)C1=C(C)NC(C)=C(C(=O)OCC)C1c1cc(Cl)ccc1OC(F)F`, with > 20 µM (inactive); and `CCN1CC(=Cc2cc(C)n(C3CC3)c2C)C(=O)C(=Cc2cc(C)n(C3CC3)c2C)C1`, with > 20 µM (inactive); and `COc1cccc(-n2c(O)c(C=Nc3cc(OC)ccc3OC)c3ccccc3c2=O)c1`, with > 20 µM (inactive).
Then `Cc1ccc(-c2nc3nc(N)n(C)c(=O)c3[nH]c2=O)cc1`, with > 20 µM (inactive); and `COCCCN(Cc1ccc(C(C)(C)C)cc1)Cc1cccn1Cc1cccc(C)c1`, with > 20 µM (inactive); and `N#C/C(=C/c1ccc(N2CCCCCC2)o1)c1ccc(F)cc1`, with > 20 µM (inactive).
Take `COc1ccc(-c2cnn(CCC(N)=O)c2)c(C)c1`: the EC50 is > 20 µM (inactive).
Regarding `CN1C(=CC=C2C(=O)Oc3ccccc3C2=O)C(C)(C)c2ccccc21`, the EC50 result is “inactive”.
Then `Cc1ccc(OCCNC(=O)N2CCN(S(=O)(=O)c3ccccc3Cl)CC2)c(C)c1`, with > 20 µM (inactive).
The same measure for `CCN1CC=C2C(C#N)C(=N)C(C#N)(C#N)C(c3cccs3)C2C1` (centres undefined): > 20 µM (inactive).
Regarding `CCOc1ccc(C(=O)Nc2sc3c(c2-c2nc4ccccc4s2)CCN(C)C3)cc1`, the EC50 is > 20 µM (inactive).
Consider `CCCN1CCc2c(sc3c2c(NC(CC)CO)nc2nnnn23)C1` (centres undefined), for which the EC50 was > 20 µM (inactive).
As to `Cc1cccc(N2C(=O)NC(=O)/C(=C/c3cn(C)c4ccccc34)C2=O)c1`, the EC50 is > 20 µM (inactive).
As to `CCCCN(CC(=O)Nc1c(-c2ccccc2)c(C)nn1-c1ccccc1C)S(=O)(=O)c1ccc(F)cc1`, the EC50 is > 20 µM (inactive).
As for `Cc1ccc(N2C(=O)NC(=O)/C(=C\c3cccs3)C2=O)cc1`, the EC50 is > 20 µM (inactive).
Then `OCCN(CCO)c1nc(N2CCCCC2)c2nc(N(CCO)CCO)nc(N3CCCCC3)c2n1`, with “inactive”; and `CC1(C)CC(c2[nH]cnc2-c2ccccc2)CCO1` (centres undefined), with > 20 µM (inactive); and `COc1ccc2c(c1)OCC(C=C(C#N)S(=O)(=O)c1ccc(Br)cc1)=C2`, with > 20 µM (inactive).
The same measure for `Cc1cc2nc3c(=O)[nH]c(=O)nc-3n(CC(O)C(O)C(O)CO)c2cc1C` (centres undefined): < 0.039 µM (inactive); for `COc1ccc(OC)c(CCNc2nc3cnc(-c4cccc5ccccc45)cc3n2C)c1`: 12.4 µM.
On to `C=C(C)Cn1c(C(=O)N2CCN(C(=O)CCC(=O)OCC)C(C)C2)cc2ccoc21` (centres undefined), for which the concentration giving a half-maximal response (EC50) was 6.05 µM.
The same measure for `O=C(O)c1csc(CSc2nnc(-c3ccncc3)n2-c2cccc(C(F)(F)F)c2)n1`: > 20 µM (inactive).
Then `CSCCC(C(=O)O)N1C(=O)/C(=C/c2ccc(O)cc2)SC1=S` (centres undefined), with > 20 µM (inactive).
Then `O=c1nc2sc3[nH]c(=O)sc3cc-2s1`, with < 0.039 µM (inactive); and `CCOC(=O)c1nc2ccccc2nc1N1CCN(C(=O)N2CCOCC2)CC1`, with > 20 µM (inactive).
As to `CC(C)C(=O)Nc1sc2c(c1-c1nc3ccccc3s1)CCN(C)C2`, the EC50 is > 20 µM (inactive).
As to `C=CCN1C=CC(=CC=C(C#N)C#N)C=C1`, the EC50 entry is “inactive”.
As to `CCC(CO)[n+]1c(C)cc(C=C2Sc3ccccc3N2CC)cc1C` (centres undefined), the EC50 entry was “inactive”.
The same measure for `Cc1[nH]c(/C=C2\C(=O)Nc3ccccc32)c(C)c1CCC(=O)O`: < 0.039 µM (inactive); for `COc1cc(C=CC(=O)c2ccc3c(c2)OCCO3)cc(Br)c1O`: “inactive”.
For `O=c1oc2c(CN3CCN(CCO)CC3)c(O)ccc2cc1-c1nc2ccccc2s1`, the EC50 is < 0.039 µM (inactive).
Then `CSc1nnc2c(n1)OC(c1ccc(OC(=O)c3ccc(Br)cc3)cc1)Nc1ccccc1-2` (centres undefined), with > 20 µM (inactive).
Take `COc1cc(/C=C/c2nc3ccccc3o2)cc(Cl)c1O`: the EC50 result was “inactive”.
Regarding `COc1ccc(C(=O)C=Cc2cc(Br)c(O)c(OC)c2)cc1F`, the EC50 result is “inactive”.
